Tests used:
ob/ob and db/db mice = conditions: 8 day administration; cited from earlier work
AMPK = AMPK enzymatic activity (Delfia technology, AMARA peptide substrate); assay type: biochemical; conditions: AMP at 200 μM as reference
Experimental: The following biological test allows the determination of the efficacy of compounds of formula (I) onto AMPK protein.
AMPK enzyme activities were assayed by using a Delfia technology. AMPK enzyme activities were carried out in microtiter plates in the presence of a synthetic peptide substrate (AMARAASAAALARRR, the “AMARA” peptide) and activators in serial dilutions. Reactions were initiated by the addition of AMPK. Enzyme activity was assayed by using an anti-phosphoserine antibody to measure the quantity of phosphate incorporated into the AMARAA.
N°: Number of the molecule
Activity: Ratio between the % of control (basal activity) of compound of formula (1) at 30 μM and the % of control (basal activity) of AMP (natural substrate) at 200 μM.

Ob/ob mice = assay: In vivo control of glycemia in ob/ob mice; conditions: oral BID during 8 days, 150 mg/kg, compared to an animal group control
Experimental: The following biological test allows the determination of the efficacy of compounds of formula (I) onto the control of glycemia on a pharmaceutical animal model.
All experiments on animals were carried out in accordance with the European animal care guidelines (ETS123).
Ob/ob mice from CERJ (53940 Le Genest Saint Isle, France) were treated orally with compounds of formula (1) BID during 8 days. At that time, a blood sample was collected and glucose concentration was determined using ABX diagnostic kit.
Results are given as a percentage of glycemia variation compared to an animal group control.

| SMILES | reduces blood glucose (ob/ob and db/db mice) [%] | Activity: Ratio between the % of control (basal activity) of compound at 30 μM and the % of control (basal activity) of AMP at 200 μM (AMPK) | % glycemia variation (Ob/ob mice) [%] |
| --- | --- | --- | --- |
| NC(=O)c1ncn([C@@H]2O[C@H](CO)[C@@H](O)[C@H]2O)c1N [AICAR] | 35 | – | – |
| COc1ccc(-c2c(O)c3c(-c4ccc5c(c4)CCC5)c(Cl)sc3[nH]c2=O)cc1 [Compound 1, 2-chloro-4-hydroxy-3-indan-5-yl-5-(4-methoxyphenyl)-7H-thieno[2,3-b]pyridin-6-one] | – | C (C>130%) | – |
| O=c1[nH]c2sc(Cl)c(-c3ccc4c(c3O)CCC4)c2c(O)c1-c1ccccc1 [Compound 2, 2-chloro-4-hydroxy-3-(4-hydroxyindan-5-yl)-5-phenyl-7H-thieno[2,3-b]pyridin-6-one] | – | B (110%<B<130%) | – |
| O=c1[nH]c2sc(Cl)c(-c3ccc4c(c3)CCC4)c2c(O)c1-c1ccccc1 [Compound 3, 2-chloro-4-hydroxy-3-indan-5-yl-5-phenyl-7H-thieno[2,3-b]pyridin-6-one] | – | B (110%<B<130%) | – |
| O=c1[nH]c2sc(Cl)c(-c3ccc4c(c3)CCC4)c2c(O)c1-c1ccc(F)cc1 [Compound 4, 2-chloro-5-(4-fluorophenyl)-4-hydroxy-3-indan-5-yl-7H-thieno[2,3-b]pyridin-6-one] | – | B (110%<B<130%) | – |
| COc1cccc(-c2c(O)c3c(-c4ccc5c(c4)CCC5)c(Cl)sc3[nH]c2=O)c1 [Compound 5, 2-chloro-4-hydroxy-3-indan-5-yl-5-(3-methoxyphenyl)-7H-thieno[2,3-b]pyridin-6-one] | – | C (C>130%) | – |
| N#Cc1cccc(-c2c(O)c3c(-c4ccc5c(c4)CCC5)c(Cl)sc3[nH]c2=O)c1 [Compound 6, 3-(2-chloro-4-hydroxy-3-indan-5-yl-6-oxo-7H-thieno[2,3-b]pyridin-5-yl)benzonitrile] | – | C (C>130%) | – |
| Cc1cccc(-c2c(O)c3c(-c4ccc5c(c4)CCC5)c(Cl)sc3[nH]c2=O)c1 [Compound 7, 2-chloro-4-hydroxy-3-indan-5-yl-5-(m-tolyl)-7H-thieno[2,3-b]pyridin-6-one] | – | C (C>130%) | – |
| O=c1[nH]c2sc(Cl)c(-c3ccc4c(c3O)CCC4)c2c(O)c1-c1ccc(F)cc1 [Compound 8, 2-chloro-5-(4-fluorophenyl)-4-hydroxy-3-(4-hydroxyindan-5-yl)-7H-thieno[2,3-b]pyridin-6-one] | – | C (C>130%) | – |
| O=c1[nH]c2sc(Cl)c(-c3ccc4c(c3O)CCC4)c2c(O)c1-c1cccc(F)c1 [Compound 9, 2-chloro-5-(3-fluorophenyl)-4-hydroxy-3-(4-hydroxyindan-5-yl)-7H-thieno[2,3-b]pyridin-6-one] | – | C (C>130%) | – |
| O=c1[nH]c2sc(Cl)c(-c3ccc4c(c3)CCC4)c2c(O)c1-c1cccnc1 [Compound 10, 2-chloro-4-hydroxy-3-indan-5-yl-5-(3-pyridyl)-7H-thieno[2,3-b]pyridin-6-one] | – | A (A<110%) | – |
| O=c1[nH]c2sc(Cl)c(-c3ccc4c(c3O)CCC4)c2c(O)c1-c1ccccc1F [Compound 11, 2-chloro-5-(2-fluorophenyl)-4-hydroxy-3-(4-hydroxyindan-5-yl)-7H-thieno[2,3-b]pyridin-6-one] | – | B (110%<B<130%) | – |
| O=c1[nH]c2sc(Cl)c(-c3ccc4c(c3O)CCCC4)c2c(O)c1-c1ccccc1 [Compound 12, 2-chloro-4-hydroxy-3-(5-hydroxytetralin-6-yl)-5-phenyl-7H-thieno[2,3-b]pyridin-6-one] | – | C (C>130%) | −27 |
| O=c1[nH]c2sc(Cl)c(-c3ccc4c(c3)CCCC4)c2c(O)c1-c1cccnc1 [Compound 13, 2-chloro-4-hydroxy-5-(3-pyridyl)-3-tetralin-6-yl-7H-thieno[2,3-b]pyridin-6-one] | – | C (C>130%) | – |
| N#Cc1cccc(-c2c(O)c3c(-c4ccc5c(c4)CCCC5)c(Cl)sc3[nH]c2=O)c1 [Compound 15, 3-(2-chloro-4-hydroxy-6-oxo-3-tetralin-6-yl-7H-thieno[2,3-b]pyridin-5-yl)benzonitrile] | – | B (110%<B<130%) | – |
| [Na+].[Na+].[Na+].[O-]c1nc2sc(Cl)c(-c3ccc4c(c3[O-])CCCC4)c2c([O-])c1-c1ccccc1 [Compound 16, trisodium 2-chloro-3-(5-oxidotetralin-6-yl)-5-phenyl-thieno[2,3-b]pyridine-4,6-diolate] | – | B (110%<B<130%) | – |
| O=c1[nH]c2sc(Cl)c(-c3ccc4c(c3)CCCC4)c2c(O)c1-c1ccccc1 [Compound 17, 2-chloro-4-hydroxy-5-phenyl-3-tetralin-6-yl-7H-thieno [2,3-b]pyridin-6-one] | – | A (A<110%) | – |
| O=c1[nH]c2sc(Cl)c(-c3ccc4c(c3O)CCCC4)c2c(O)c1-c1ccc(F)cc1 [Compound 18, 2-chloro-5-(4-fluorophenyl)-4-hydroxy-3-(5-hydroxytetralin-6-yl)-7H-thieno[2,3-b]pyridin-6-one] | – | B (110%<B<130%) | – |
| O=c1[nH]c2sc(Cl)c(-c3ccc4c(c3[O-])CCCC4)c2c([O-])c1-c1ccccc1.[Na+].[Na+] [Compound 19, disodium 2-chloro-3-(5-oxidotetralin-6-yl)-6-oxo-5-phenyl-7H-thieno[2,3-b]pyridin-4-olate] | – | C (C>130%) | −41 |
| Cc1cccc(-c2c(O)c3c(-c4ccc5c(c4O)CCCC5)c(Cl)sc3[nH]c2=O)c1 [Compound 20, 2-chloro-4-hydroxy-3-(5-hydroxytetralin-6-yl)-5-(m-tolyl)-7H-thieno[2,3-b]pyridin-6-one] | – | C (C>130%) | – |
| Cc1ccc(-c2c(O)c3c(-c4ccc5c(c4O)CCCC5)c(Cl)sc3[nH]c2=O)cc1 [Compound 21, 2-chloro-4-hydroxy-3-(5-hydroxytetralin-6-yl)-5-(p-tolyl)-7H-thieno[2,3-b]pyridin-6-one] | – | C (C>130%) | – |
